Data reported in article PMC9659204, “Biochemical Characterization of Pyranose Oxidase from Streptomyces canus—Towards a Better Understanding of Pyranose Oxidase Homologues in Bacteria” (International Journal of Molecular Sciences, 2022).

Test system: T1, ScPOx (pyranose oxidase from Streptomyces canus)
T1 construct: synthetic codon-optimised gene in pET-21d+ (NcoI/HindIII), C-terminal His6 tag, E. coli BL21(DE3); 52 kDa monomer, noncovalent FAD
Assay: steady-state kinetics, spectrophotometric
Assay type: biochemical
Details: apparent; electron acceptor; 4 M D-xylose as electron donor; 50 mM potassium phosphate pH 6.5; 30 °C
From the text: steady-state kinetics, spectrophotometric on ScPOx (pyranose oxidase from Streptomyces canus)

Q: With O=C1C(Cl)=CC(=Nc2ccc(O)cc2)C=C1Cl [DCIP] as the molecule, how does the Km read?
A: Its Km is 50 ± 10 µM.

Q: For O=C1C=CC(=O)C=C1 [p-BQ], which Km is on record?
A: Its Km is 130 ± 20 µM.
